According to US11666558B2, “Methods of treating intraocular pressure with activators of Tie-2” (EyePoint Pharmaceuticals, Inc., priority 2015, dated 2023):
“Also recorded” adds a separate entry of the source. Where a name gives a salt, the structure may show the parent alone. Read-outs that look alike come from different tables or passages of the source.

Experiments:
Type in all cases: in vivo, New Zealand White rabbits
[1] = General health observations after repeated dosing; settings: repeated topical (0.45 or 1.2 mg/eye) and subcutaneous (10 mg/kg) dosing over 7 days
Description: Animals were observed within their cages once daily throughout the study period. […] General health observations were recorded daily beginning on Day 1 and continuing throughout the course of the study.

[2] = Plasma concentrations and pharmacokinetic parameters after topical ocular, subcutaneous and intravitreal administration; settings: for AUC(0-t): read-out: AUClast (± SE); for concentration at 0.5 hr / concentration at 0.5 h: 0.50 hr
Description: To measure the concentration of Compound 1 in plasma and ocular tissues following topical ocular, subcutaneous, and intravitreal administration, New Zealand White rabbits were administered Compound 1, and plasma and ocular samples were collected at pre-determined time points. Compound 1 formulations were prepared fresh on each day of dosing.
New Zealand White rabbits weighing 2.5 to 3.5 kg were used on this study. Rabbits were housed one per cage. Animals were not fasted and only healthy animals with no ocular illness were used. Two rabbits per group were sacrificed at each of four ocular tissue sampling time points for a total of eight rabbits per group.
Animals were anesthetized for ocular (topical) and intravitreal dosing following the 12IA7 IACUC protocol. Each rabbit received a bolus dose of test formulation either via topical ocular administration 3 times daily on Days 1 and 2 (at 0, 6, and 12 hours), and once on Day 3 (at 0 hours) into both eyes; via intravitreal administration into both eyes once on Day 1 (at 0 hours); or via subcutaneous administration 2 times daily on Days 1 and 2 (at 0 and 8 hours) and once daily on Day 3 (at 0 hours). Doses were given within an approximately 1 hour window each day where applicable.
Each blood sample was collected on Day 3 post dose at pre-determined time points from the rabbits via an ear vessel and placed into chilled polypropylene tubes containing sodium heparin as an anticoagulant. Samples were spun by centrifuge at 4° C. and 3,000×g for 5 minutes. Samples were maintained chilled throughout processing. Each plasma sample was placed on dry ice and stored in a freezer at −60° C. to −80° C. pending bioanalysis.
An LC-MS/MS method was developed for the determination of Compound 1 in rabbit aqueous tissues (plasma, aqueous and vitreous humor) and solid ocular tissue samples. A pre-study standard curve was analyzed to determine the specificity, range, and lower limit of quantitation of the method. Plasma and tissue homogenate study samples were extracted and analyzed. All the samples were treated identically to the standards.
One eight-point standard curve was used in each analytical batch. To be accepted, each batch must have had at least five of eight standards with accuracy within ±20% of nominal, except at the lower limit of quantification (LLOQ), where ±25% was acceptable.
Pharmacokinetic parameters were calculated from the time course of the plasma concentration. The maximum plasma concentration (Cmax) and time to the maximum plasma drug concentration (Tmax) were the observed values for each concentration-time profiles. The area under the plasma drug concentration-time curve (AUClast, with last being from time 0 to the last quantifiable point) was calculated using the trapezoidal formula. The mean residence time MRTlast was calculated as a ratio of AUMClast (area under the first movement curve) to AUClast.

[3] = Ophthalmic examination (slit-lamp biomicroscopy, modified McDonald-Shadduck Scoring System) after repeated dosing
Description: Prior to placement on study, each animal underwent an ophthalmic examination (slitlamp biomicroscopy and indirect ophthalmoscopy). Ocular findings were scored according to a modified McDonald-Shadduck Scoring System and recorded on a standardized data sheet. The acceptance criteria for placement on study were scores of “0” for all variables.
Ophthalmic examination (slit-lamp biomicroscopy only) was performed at baseline (prior to the start of dosing) and on Days 1, 4, and 8. Ocular findings were scored according to a modified McDonald-Shadduck Scoring System. A slit lamp was used to observe conjunctival discharge, […], […], the cornea, the surface area of cornea involvement, pannus, pupillary response, aqueous flare, cellular flare, iris involvement, and the lens. An indirect ophthalmoscope was used to observe the vitreous, vitral hemorrhage, retinal detachment, retinal hemorrhage, and choroidal/retinal inflammation. Animals were prepared for observation by using a solution (atropine, tropicaminde, or phenylephrine) to dilate the pupils.
Conjunctival discharge was defined as a whitish gray precipitate from the eye. Scoring was as follows.
Conjunctival congestion causes the blood vessels of the eye to become enlarged. Scoring was as follows.
Conjunctival swelling, defined as swelling of the conjunctiva, was scored as follows.

[4] = New Zealand White, rabbit, plasma, other: intravitreal, 1.55 mg/kg, plasma, intravitreal 2.5 mg/eye (~1.55 mg/kg), solution
[5] = New Zealand White, rabbit, plasma, other: intravitreal, 2.5 mg, plasma, intravitreal 2.5 mg/eye (~1.55 mg/kg), solution
[6] = New Zealand White, rabbit, plasma, other: intravitreal, 2.5 mg/eye, intravitreal 2.5 mg/eye (~1.55 mg/kg), solution, read-out: plasma Average
[7] = New Zealand White, rabbit, plasma, other: intravitreal, 2.5 mg/eye, intravitreal 2.5 mg/eye (~1.55 mg/kg), solution, read-out: plasma Conc., individual rabbit
[8] = New Zealand White, rabbit, plasma, sc, 5 mg/kg, subcutaneous 5 mg/kg/dose, solution
[9] = New Zealand White, rabbit, plasma, subcutaneous, 5 mg/kg/dose, subcutaneous 5 mg/kg/dose, solution, read-out: plasma Average
[10] = New Zealand White, rabbit, plasma, subcutaneous, 5 mg/kg/dose, subcutaneous 5 mg/kg/dose, solution, read-out: plasma Conc., individual rabbit
[11] = New Zealand White, rabbit, plasma, topical or ocular, 0.7 mg/kg, topical ocular 1.2 mg/eye (~0.7 mg/kg/dose), solution
[12] = New Zealand White, rabbit, plasma, topical or ocular, 1.2 mg, topical ocular 1.2 mg/eye (~0.7 mg/kg/dose), solution
[13] = New Zealand White, rabbit, plasma, topical, 1.2 mg/eye, topical ocular 1.2 mg/eye (~0.7 mg/kg/dose), read-out: plasma Average
[14] = plasma, intravitreal solution, normalized by 1.55 mg/kg
[15] = plasma, subcutaneous solution, normalized by 5 mg/kg
[16] = subcutaneous administration, sodium salt solution

For COC(=O)N[C@@H](Cc1ccccc1)C(=O)N[C@@H](Cc1ccc(NS(=O)(=O)O)cc1)c1csc(-c2cccs2)n1 [Compound 1 sodium salt], the general health [1] was “normal health and activity; also recorded: No adverse effects”, the AUC(0-inf) [2, 4] was 956 ng·h/mL and the Cmax [2, 4] was 39.8 ng/mL. The MRT last [2, 4] was 15.1 h, the half-life [2, 4] was 8.08 h and the AUC(0-t) [2, 4] was 953 ng·h/mL. It also gave a Tmax ([2]; New Zealand White, rabbit, plasma, other: intravitreal, 1.55 mg/kg, plasma, intravitreal 2.5 mg/eye (~1.55 mg/kg), solution, read-out: tmax) of 3 h, an AUC(0-inf) [2, 5] of 956 ng·h/mL and a Cmax [2, 5] of 39.8 ± 2.3 ng/mL. It also gave an MRT last [2, 5] of 15.1 h, a half-life [2, 5] of 8.08 h and an AUC(0-t) [2, 5] of 953 ± 91.1 ng·h/mL. The Tmax ([2]; New Zealand White, rabbit, plasma, other: intravitreal, 2.5 mg, plasma, intravitreal 2.5 mg/eye (~1.55 mg/kg), solution, read-out: tmax) was 3 h, the concentration at 1 h ([2]; New Zealand White, rabbit, plasma, other: intravitreal, 2.5 mg/eye, intravitreal 2.5 mg/eye (~1.55 mg/kg), solution, 1.0 hr, read-out: plasma Average) was 32.3 ng/mL and the concentration at 1 h ([2]; New Zealand White, rabbit, plasma, other: intravitreal, 2.5 mg/eye, intravitreal 2.5 mg/eye (~1.55 mg/kg), solution, 1.0 hr, read-out: plasma Conc., individual rabbit) was 33.2 ng/mL. For the same compound, the concentration at 3 h [2, 6] was 39.8 ng/mL, the concentration at 3 h [2, 7] was 37.5 ng/mL and the concentration at 6 h ([2]; New Zealand White, rabbit, plasma, other: intravitreal, 2.5 mg/eye, intravitreal 2.5 mg/eye (~1.55 mg/kg), solution, 6.0 hr, read-out: plasma Average) was 36.8 ng/mL. The concentration at 6 hr ([2]; New Zealand White, rabbit, plasma, other: intravitreal, 2.5 mg/eye, intravitreal 2.5 mg/eye (~1.55 mg/kg), solution, 6.0 hr, read-out: plasma Conc., individual rabbit) was 44.3 ng/mL, the concentration at 24 hr [2, 6] was 16.9 ng/mL and the concentration at 24 hr [2, 7] was 19 ng/mL. The concentration at 48 hr [2, 6] was 2.58 ng/mL, the concentration at 48 hr [2, 7] was 2.7 ng/mL and the concentration at 72 hr [2, 6] was 0.27 ng/mL. It also gave a concentration at 72 hr [2, 7] of 0.215 ng/mL, an AUC(0-t) ([2]; New Zealand White, rabbit, plasma, sc, 5 mg/kg, plasma, subcutaneous 5 mg/kg/dose, solution) of 1560 ± 195 ng·h/mL and a Tmax ([2]; New Zealand White, rabbit, plasma, sc, 5 mg/kg, plasma, subcutaneous 5 mg/kg/dose, solution, read-out: tmax) of 0.25 h. The Tmax ([2]; New Zealand White, rabbit, plasma, sc, 5 mg/kg, subcutaneous administration, solution, read-out: Mean plasma Tmax (converted)) was 0.25 h, the AUC(0-inf) [2, 8] was 1560 ng·h/mL and the Cmax [2, 8] was 1520 ± 115 ng/mL. It also gave an MRT last [2, 8] of 0.87 h, a half-life [2, 8] of 0.47 h and a concentration at 0.25 hr [2, 9] of 1520 ng/mL. The concentration at 0.25 hr [2, 10] was 1640 ng/mL, the concentration at 0.5 hr [2, 9] was 1100 ng/mL and the concentration at 0.5 hr [2, 10] was 883 ng/mL. The concentration at 1 hr ([2]; New Zealand White, rabbit, plasma, subcutaneous, 5 mg/kg/dose, subcutaneous 5 mg/kg/dose, solution, 1.0 hr, read-out: plasma Average) was 646 ng/mL, the concentration at 1 h ([2]; New Zealand White, rabbit, plasma, subcutaneous, 5 mg/kg/dose, subcutaneous 5 mg/kg/dose, solution, 1.0 hr, read-out: plasma Conc., individual rabbit) was 664 ng/mL and the concentration at 2 h ([2]; New Zealand White, rabbit, plasma, subcutaneous, 5 mg/kg/dose, subcutaneous 5 mg/kg/dose, solution) was 180 ng/mL. For the same compound, the concentration at 4 h [2, 9] was 7.76 ng/mL, the concentration at 4 h [2, 10] was 7.98 ng/mL and the AUC(0-t) ([2]; New Zealand White, rabbit, plasma, topical or ocular, 0.7 mg/kg, plasma, topical ocular 1.2 mg/eye (~0.7 mg/kg/dose), solution) was 11.8 ng·h/mL. The Tmax ([2]; New Zealand White, rabbit, plasma, topical or ocular, 0.7 mg/kg, plasma, topical ocular 1.2 mg/eye (~0.7 mg/kg/dose), solution, read-out: tmax) was 4 h, the Cmax [2, 11] was 7.48 ng/mL and the MRT last [2, 11] was 2.98 h. For the same compound, the AUC(0-t) ([2]; New Zealand White, rabbit, plasma, topical or ocular, 1.2 mg, plasma, topical ocular 1.2 mg/eye (~0.7 mg/kg/dose), solution) was 11.8 ± 5.7 ng·h/mL, the Tmax ([2]; New Zealand White, rabbit, plasma, topical or ocular, 1.2 mg, plasma, topical ocular 1.2 mg/eye (~0.7 mg/kg/dose), solution, read-out: tmax) was 4 h and the Cmax [2, 12] was 7.48 ± 5.53 ng/mL. It also gave an MRT last [2, 12] of 2.98 h, a concentration at 0.5 h [2, 13] of 3.03 ng/mL and a concentration at 0.5 h ([2]; New Zealand White, rabbit, plasma, topical, 1.2 mg/eye, topical ocular 1.2 mg/eye (~0.7 mg/kg/dose), read-out: plasma Conc., individual rabbit) of 3.84 ng/mL. For the same compound, the concentration at 1 h ([2]; New Zealand White, rabbit, plasma, topical, 1.2 mg/eye, topical ocular 1.2 mg/eye (~0.7 mg/kg/dose), 1.0 hr, read-out: plasma Average) was 1.46 ng/mL, the concentration at 1 h ([2]; New Zealand White, rabbit, plasma, topical, 1.2 mg/eye, topical ocular 1.2 mg/eye (~0.7 mg/kg/dose), 1.0 hr, read-out: plasma Conc., individual rabbit) was 1.28 ng/mL and the concentration at 2 h ([2]; New Zealand White, rabbit, plasma, topical, 1.2 mg/eye, topical ocular 1.2 mg/eye (~0.7 mg/kg/dose)) was 1.14 ng/mL. For the same compound, the concentration at 4 h [2, 13] was 7.48 ng/mL, the “Mean plasma Cmax, fold higher than Compound 1 (free acid) suspension” value ([2]; intravitreal administration, sodium salt solution) was “approximately 2 fold” and the “Dose normalized AUClast” value [2, 14] was 615 kg·ng·h/mL/mg. The “Dose normalized AUC∞” value [2, 14] was 617 kg·ng·h/mL/mg, the “Dose normalized AUClast” value ([2]; plasma, intravitreal solution, normalized by 1.55 mg/kg, listed as Compound 1 (sodium salt)) was 615 ± 58.8 kg·ng·h/mL/mg and the “Dose normalized AUClast” value [2, 15] was 311 kg·ng·h/mL/mg. The “Dose normalized AUC∞” value [2, 15] was 312 kg·ng·h/mL/mg, the “Dose normalized AUClast” value ([2]; plasma, subcutaneous solution, normalized by 5 mg/kg, listed as Compound 1 (sodium salt)) was 311 ± 38.9 kg·ng·h/mL/mg and the “Dose normalized AUClast” value ([2]; plasma, topical ocular, normalized by 0.7 mg/kg) was 16.8 kg·ng·h/mL/mg. For the same compound, the “Dose normalized AUClast” value ([2]; plasma, topical ocular, normalized by 0.7 mg/kg, listed as Compound 1 (sodium salt)) was 16.8 ± 8.15 kg·ng·h/mL/mg, the “Mean plasma AUClast, fold higher than Compound 1 (free acid) suspension” value [2, 16] was “approximately 2 fold” and the “Mean plasma Cmax, fold higher than Compound 1 (free acid) suspension” value [2, 16] was “approximately 3 fold”. For the same compound, the “mild conjunctival congestion (scores=1), animals affected” value ([3]; Group 2, 0.45 mg/eye topical BID, Day 1) was “all five animals”, the “mild conjunctival congestion (scores=1), animals affected” value ([3]; Group 2, 0.45 mg/eye topical BID, Day 4) was “two animals” and the “mild conjunctival congestion (scores=1), animals affected” value ([3]; Group 3, 1.2 mg/eye topical BID, Day 1) was “two animals”. For the same compound, the “mild conjunctival congestion (scores=1), animals affected” value ([3]; Group 3, 1.2 mg/eye topical BID, Day 4) was “two animals”, the “mild conjunctival congestion (scores=1), animals affected” value ([3]; Group 4, 1.2 mg/eye topical QD, Day 1) was “one animal” and the “mild conjunctival congestion (scores=1), animals affected” value ([3]; Group 4, 1.2 mg/eye topical QD, Day 4) was “one animal”. The “mild conjunctival congestion (scores=1), animals affected” value ([3]; Group 5, 10 mg/kg subcutaneous BID, Day 1) was “three animals”, the “mild conjunctival congestion (scores=1), animals affected” value ([3]; Group 5, 10 mg/kg subcutaneous BID, Day 4) was “none” and the ocular anomalies ([3]; all groups, Day 8) was “No ocular anomalies”. The “relation of mild conjunctival congestion to the test article” value ([3]; repeated topical and subcutaneous dosing) was “appeared to be unrelated to the test article”.
